Experiments:
[1] = target: IgE- and IgG-mediated activation of Fc receptor signaling; details: read-out: EC50 for degranulation; cited from earlier work
[2] = tested on: monocytes/macrophages, neutrophils, B lymphocytes; details: cited from earlier work
[3] = tested on: ITP patients; test: Fostamatinib in immune thrombocytic purpura (ITP) patients; type: in vivo, human
[4] = tested on: Transgenic HIT mice homozygous for both FcγRIIA and human PF4 and null for mouse PF4; test: Inhibition of thrombosis in vivo, transgenic HIT mice, lung thrombi; details: chow containing 0.5, 1 and 2 g/kg of R788 for 3 days, KKO or HIT-IgG, then heparin, lungs 3 hours later
Text: Transgenic HIT mice homozygous for both FcγRIIA and human PF4 and null for mouse PF4 are used to evaluate the effects of fostamatinib on immune complexes (IC)-induced thrombocytopenia and thrombosis. 6-12 weeks old transgenic male mice are fed the control chow or chow containing 0.5, 1 and 2 g/kg of R788 for 3 days prior to the injection of either the monoclonal HIT-like antibody KKO or IgG from HIT patients (HIT-IgG). For HIT-induced thrombocytopenia experiments, all mice received heparin subcutaneously at 1600 U/kg body weight once daily for 6 days, starting with first day after antibody injection. Retro-orbital blood collection is performed daily after anesthetizing the animals starting a day before HIT antibody injection to monitor thrombocytopenia by counting platelets using standard equipment.
To assess fostamatinib effect on thrombosis, the mice are fed with drug or vehicle chow followed by injection of the HIT antibodies as described. Next day, each animal is retro-orbitally infused with 1×10^8 Alexa750-labeled platelets from untreated syngeneic donor mice prior to heparin injection. Animals are terminated 3 hours later, their lungs are excised, perfused with PBS, fixed with 7% paraformaldehyde and imaged using Odyssey Imaging System (LI-COR Bio). Thrombi are counted and scored by intensity using NIS Elements software (Nikon). […]

[5] = tested on: C57Bl/6 WT male mice; test: Deep vein thrombosis, inferior vena cava (IVC) stenosis model; type: in vivo; details: fostamatinib chow for 3 days; 48 hours after the surgery
Experimental: Mice are fed fostamatinib or vehicle chow for 3 days, anaesthetized using isoflurane and then subjected to laparotomy. After tying off the side branches of the IVC, the IVC is stenosed with a ligature and a 30-gauge spacer to maintain a small degree of blood flow. Mice are allowed to recover, then culled 48 hours after the surgery and the IVC are examined for the presence and size of thrombus.
For deep vein thrombosis assay methods generally, see, Low dose Btk inhibitors selectively block platelet activation by CLEC-2. Phillip L. R. Nicolson et al. Haematologica 2020 Jan. 16. pii: haematol. 2019.218545. doi: 10.3324/haematol.2019.218545

[6] = tested on: C57Bl6 mice; test: Arterial thrombosis, ferric chloride injury model of carotid artery; type: in vivo; details: fostamatinib chow for 3 days; FeCl3 on carotid artery
Experimental: To investigate effect on arterial thrombosis, a ferric chloride injury model in mice is employed. 8-week-old C57Bl6 mice are fed fostamatinib or vehicle chow for 3 days, anaesthetized using mixture of ketamine (100 mg/kg)/xylazine (10 mg/kg) via intraperitoneal injection and have their right jugular vein exposed. Next, rhodamine 6G solution is injected into the right jugular vein to label platelets, exposed carotid artery (CA) staged at the microscope and the thrombosis is induced by applying a piece of filter paper (1×2 mm) saturated with FeCl3 solution directly on the CA. Thrombus formation is identified by accumulation of the fluorescent platelets, which is observed in real-time recording video images under the microscope.
For arterial thrombosis assay methods generally, see, Wei Li, Thomas M. McIntyre, Roy L. Silverstein. Ferric chloride-induced murine carotid arterial injury: A model of redox pathology. Redox Biology 1 (2013) 50-55, and Wei Li, Marvin Nieman, Anirban Sen Gupta. Ferric Chloride-induced Murine Thrombosis Models. J. Vis. Exp. (115), e54479, doi:10.3791/54479 (2016).

Structure (SMILES) | EC50 [1] | BCR-mediated activation of B lymphocytes [2] | Syk-dependent FcR-mediated activation of monocytes/macrophages and neutrophils [2] | platelet levels [3] | risk of thrombosis [3] | heparin induced thrombosis (lung thrombi counted and scored by intensity) [4] | heparin induced thrombosis (lung thrombi counted and scored by intensity) ([4]; listed as R788) | presence and size of thrombus in IVC [5] | arterial thrombus formation (accumulation of fluorescent platelets) [6]
COc1cc(Nc2ncc(F)c(Nc3ccc4c(n3)NC(=O)C(C)(C)O4)n2)cc(OC)c1OC [R406, 6-((5-fluoro-2-((3,4,5-trimethoxyphenyl)amino)pyrimidin-4-yl)amino)-2,2-dimethyl-2H-pyrido[3,2-b][1,4]oxazin-3(4H)-one] | 56 to 64 nM | blocked | blocked | – | – | – | – | – | –
COc1cc(Nc2ncc(F)c(Nc3ccc4c(n3)N(COP(=O)(O)O)C(=O)C(C)(C)O4)n2)cc(OC)c1OC [fostamatinib, [6-({5-Fluoro-2-[(3,4,5-trimethoxyphenyl)amino]-4-pyrimidinyl}amino)-2,2-dimethyl-3-oxo-2,3-dihydro-4H-pyrido[3,2-b][1,4]oxazin-4-yl]methyl dihydrogen phosphate] | – | – | – | increases platelet levels | does not appear to increase risk of thrombosis | effectively reduces heparin induced thrombosis | inhibits thrombosis in vivo | Relative lack of thrombus | Lack of thrombus formation

From patent US20200377518A1, “METHOD OF PREVENTING AND TREATING THROMBOSIS” (Rigel Pharmaceuticals, Inc., priority 2019, published 2020)
